Measured values as given in patent publication US4994376A, “Detection of bacteroides gingivalis” (priority 1987, dated 1991).
Several values for one entry are separate records, joined by “and”; a condition that tells them apart may be missing. Equal entries are not always repeated. Where two headings read alike, the source gives them in different places. Peptide text beside a SMILES is read from it.

What was measured:
Assay type in all cases: biochemical
C. ochracea = tested on: C. ochracea
Protocol: (§1) The enzyme activity was measured by the chromogenic properties of N-CBz-glycyl-glycyl-L-arginine-β-naphthylamide which upon hydrolysis gives a visible color. The aminopeptidase activities listed in the table reflect the nanomoles of β-naphthylamine liberated after 60 minutes under the conditions described below.
(§2) After mixing, the solution is incubated for 1 hour at 37° C. and then 0.4 ml of a solution of stabilized diazonium salt, Fast Garnet GBC (0.5 mg/ml) in a 1M acetic acid buffer (pH 4.2), containing 10% Tween 20 was added to the mixture. After standing for 15 minutes at room temperature, the color reaction can be read manually by comparison with standard solutions or the absorbancy can be determined using a spectrophotometer at 525 nm. The reaction mixture without enzyme solution is used as a control.

Capnocytophaga sp. = tested on: Capnocytophaga sp.
Protocol: as §1, §2

B. mel. ss. intermedius = tested on: B. mel. ss. intermedius
Protocol: as §1, §2

[1] = tested on: Capnocytophaga gingivalis
Protocol: as §1, §2

B. denticola = test: Aminopeptidase activity on β-naphthylamide substrates
Protocol: as §1, §2

B. intermedius = test: as above
Protocol: as §1, §2

B. melaninogenicus = test: as above
Protocol: as §1, §2

C. sputigena = test: as above
Protocol: as §1, §2

B. corporis = test: as above
Protocol: as §1, §2

F. periodonticum = test: as above
Protocol: as §1, §2
(§3) The enzyme activity and the aminopeptidase activities were determined in the manner described above in regard to Table I.

Veillonella alcalesens = test: as above
Protocol: as §1, §2, §3

A. equuli = test: as above
Protocol: as §1, §2, §3

Lactobacillus casei = test: as above
Protocol: as §1, §2, §3

S. salivarius = test: as above; settings: β-naphthylamine liberated after 60 minutes, 37° C.
Protocol: as §1, §2, §3

L. fermentum = test: as above
Protocol: as §1, §2, §3

A. suis = test: as above
Protocol: as §1, §2, §3

Haemophilus aphrophilus = test: as above
Protocol: as §1, §2, §3

Campylobacter sputorum = tested on: Campylobacter sputorum
Protocol: as §1, §2, §3

Fusobacterium nucleatum = tested on: Fusobacterium nucleatum
Protocol: as §1, §2, §3

S. mutans = tested on: S. mutans
Protocol: as §1, §2, §3

S. sanguis = tested on: S. sanguis
Protocol: as §1, §2, §3

V. parvula = tested on: V. parvula
Protocol: as §1, §2, §3

Actinomyces israeli = tested on: Actinomyces israeli
Protocol: as §1, §2, §3

"Anaerobic vibrio" = tested on: "Anaerobic vibrio"
Protocol: as §1, §2, §3

A. seminis = tested on: A. seminis
Protocol: as §1, §2, §3

Eikenella corrodens = tested on: Eikenella corrodens
Protocol: as §1, §2, §3

Veillonella sp. = tested on: Veillonella sp.
Protocol: as §1, §2, §3

B. loescheii = tested on: B. loescheii
Protocol: as §1, §2

B. levii = tested on: B. levii
Protocol: as §1, §2

A. viscosus = tested on: A. viscosus
Protocol: as §1, §2, §3

[2] = strain D31A-24, β-naphthylamine liberated after 60 minutes, 37° C.

SMILES: N=C(N)NCCC[C@H](NC(=O)CN)C(=O)O [Gly-Arg, Glycyl-arginine] (H-Gly-Arg-OH)
- Aminopeptidase activity (C. ochracea): 11
- Aminopeptidase activity (Capnocytophaga sp.): 20
- Aminopeptidase activity (B. mel. ss. intermedius): 13 and 9
- Aminopeptidase activity [1]: 6
- Aminopeptidase activity (B. denticola; strain ATCC 33185, β-naphthylamine liberated after 60 minutes, 37° C.): 4 nmol
- Aminopeptidase activity (B. intermedius; strain ATCC 25611, β-naphthylamine liberated after 60 minutes, 37° C.): 22 nmol
- Aminopeptidase activity (B. melaninogenicus; strain ATCC 25845, β-naphthylamine liberated after 60 minutes, 37° C.): 4 nmol
- Aminopeptidase activity (C. sputigena; strain ATCC 33123, β-naphthylamine liberated after 60 minutes, 37° C.): 8 nmol
- Aminopeptidase activity (B. corporis; strain ATCC 33547, β-naphthylamine liberated after 60 minutes, 37° C.): 0 nmol
- Aminopeptidase activity (F. periodonticum; strain EK1-15, β-naphthylamine liberated after 60 minutes, 37° C.): 0 nmol
- Aminopeptidase activity (Veillonella alcalesens; strain ATCC 11748, β-naphthylamine liberated after 60 minutes, 37° C.): 0 nmol
- Aminopeptidase activity (A. equuli; strain ATCC 19392, β-naphthylamine liberated after 60 minutes, 37° C.): 0 nmol
- Aminopeptidase activity (Lactobacillus casei; strain ATCC 7469, β-naphthylamine liberated after 60 minutes, 37° C.): 0 nmol
- Aminopeptidase activity (Lactobacillus casei; strain ATCC 11578, β-naphthylamine liberated after 60 minutes, 37° C.): 0 nmol
- Aminopeptidase activity (Lactobacillus casei; strain ATCC 11582, β-naphthylamine liberated after 60 minutes, 37° C.): 1 nmol
- Aminopeptidase activity (S. salivarius; strain ATCC 9759): 0 nmol
- Aminopeptidase activity (S. salivarius; strain ATCC 25975): 0 nmol
- Aminopeptidase activity (L. fermentum; strain ATCC 11581, β-naphthylamine liberated after 60 minutes, 37° C.): 0 nmol
- Aminopeptidase activity (A. suis; strain ATCC 15557, β-naphthylamine liberated after 60 minutes, 37° C.): 0 nmol
- Aminopeptidase activity (Haemophilus aphrophilus; strain ATCC 13252, β-naphthylamine liberated after 60 minutes, 37° C.): 0 nmol
- Aminopeptidase activity (Haemophilus aphrophilus; strain ATCC 19415, β-naphthylamine liberated after 60 minutes, 37° C.): 0 nmol
- Aminopeptidase activity (Haemophilus aphrophilus; strain NCTC 5908, β-naphthylamine liberated after 60 minutes, 37° C.): 0 nmol
- Aminopeptidase activity (Campylobacter sputorum): 0
- Aminopeptidase activity (Fusobacterium nucleatum): 0
- Aminopeptidase activity (Fusobacterium nucleatum; [2]): 1 nmol
- Aminopeptidase activity (S. mutans): 0
- Aminopeptidase activity (S. sanguis): 3
- Aminopeptidase activity (V. parvula): 0
- Aminopeptidase activity (Actinomyces israeli): 0
- Aminopeptidase activity ("Anaerobic vibrio"): 0
- Aminopeptidase activity (A. seminis): 0
- Aminopeptidase activity (Eikenella corrodens): 2
- Aminopeptidase activity (Veillonella sp.): 0

SMILES: NCCCC[C@H](N)C(=O)N1CCC[C@H]1C(=O)O [Lys-Pro, Lysyl-proline] (H-Lys-Pro-OH)
- Aminopeptidase activity (C. ochracea): 108
- Aminopeptidase activity (Capnocytophaga sp.): 35
- Aminopeptidase activity (B. mel. ss. intermedius): 54 and 75 and 69
- Aminopeptidase activity (B. loescheii): 81 and 89
- Aminopeptidase activity [1]: 176
- Aminopeptidase activity (B. levii): 51 and 54
- Aminopeptidase activity (B. denticola): 86
- Aminopeptidase activity (B. intermedius): 63
- Aminopeptidase activity (B. melaninogenicus): 70
- Aminopeptidase activity (C. sputigena): 86
- Aminopeptidase activity (B. corporis): 75
- Aminopeptidase activity (F. periodonticum): 1
- Aminopeptidase activity (Veillonella alcalesens): 1
- Aminopeptidase activity (A. equuli): 0
- Aminopeptidase activity (Lactobacillus casei): 0
- Aminopeptidase activity (L. fermentum): 0
- Aminopeptidase activity (A. suis): 0
- Aminopeptidase activity (Haemophilus aphrophilus): 0
- Aminopeptidase activity (Campylobacter sputorum): 3
- Aminopeptidase activity (Fusobacterium nucleatum): 2 and 1
- Aminopeptidase activity (Fusobacterium nucleatum; [2]): 2 nmol
- Aminopeptidase activity (S. mutans): 14
- Aminopeptidase activity (S. sanguis): 5 and 4
- Aminopeptidase activity (V. parvula): 0
- Aminopeptidase activity (A. viscosus): 5 and 7
- Aminopeptidase activity ("Anaerobic vibrio"): 3
- Aminopeptidase activity (A. seminis): 0
- Aminopeptidase activity (Eikenella corrodens): 0
- Aminopeptidase activity (Veillonella sp.): 1
